Measurements from US20240376085A1 (Janssen Pharmaceutica NV, priority 2021, published 2024).

Tests used:
IL-17A : IL-17RA binding = target: T1, IL-17A : IL-17RA binding (Homo sapiens, UniProt Q16552, K93Q); test: IL-17A(FLAG-tagged):IL-17RA(His-tagged) binding disruption Eu-HTRF assay, Protocol 1; settings: FLAG-IL-17A 2.5 nM at 2x final concentration; average if tested more than once
T1 construct: Name: IL-17A-Flag
How it was run: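 IC50 came from a one-site competition fit of the acceptor/donor (665/620 nm) HTRF ratio. His-tagged IL-17RA, Eu-anti-FLAG and D2-anti-His were added after a 1 h rt compound preincubation with FLAG-tagged IL-17A dimer in PBS/0.01% Triton X-100, followed by 2 h at rt before reading.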

[1] = system: IL-17A-induced G-CSF production in human normal keratinocyte (NHK); test: NHK assay: IL-17A-induced G-CSF production in normal human keratinocytes; assay type: cell-based; settings: Homo sapiens, Keratinocyte, 24 h, IL-17A 5 ng/mL, average if tested more than once
How it was run: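 Stimulus rhIL-17A 5 ng/mL final, premixed 1 h rt with compound; adult NHK, 5% FBS, 0.2% DMSO. Viability by CellTiter-Glo vs DMSO.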

T1 sequence (Q16552 with tags, fused parts or gaps K93Q): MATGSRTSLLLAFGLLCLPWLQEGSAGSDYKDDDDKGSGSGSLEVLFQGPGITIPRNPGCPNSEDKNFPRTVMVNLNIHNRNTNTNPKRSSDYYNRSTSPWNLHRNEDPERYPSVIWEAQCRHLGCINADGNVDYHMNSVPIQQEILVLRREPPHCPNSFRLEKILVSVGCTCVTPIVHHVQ

Row | Structure (SMILES) | IC50 (IL-17A : IL-17RA binding) [nM] | IC50 [1] [nM]
1 | C[C@@H](NC(=O)CCC(F)(F)F)c1ccc2[nH]c([C@@H](NC(=O)C3CC3)C3CCC(F)(F)CC3)nc2c1 [Example 94, N—((S)-(4,4-Difluorocyclohexyl)(5-((R)-1-(4,4,4-trifluorobutanamido)ethyl)-1H-benzo[d]imidazol-2-yl)methyl)cyclopropanecarboxamide] | > 100 | > 100
2 | C[C@@H](NC(=O)CCC(F)(F)F)c1ccc2[nH]c([C@@H](NC(=O)C3(C)CC3)C3CCC(F)(F)CC3)nc2c1 [Example 95, N—((S)-(4,4-Difluorocyclohexyl)(5-((R)-1-(4,4,4-trifluorobutanamido)ethyl)-1H-benzo[d]imidazol-2-yl)methyl)-1-methylcyclopropane-1-carboxamide] | > 100 | > 100
3 | C[C@@H](NC(=O)CCC(F)(F)F)c1ccc2[nH]c([C@@H](NC(=O)C3(F)CC3)C3CCC(F)(F)CC3)nc2c1 [Example 96, N—((S)-(4,4-Difluorocyclohexyl)(5-((R)-1-(4,4,4-trifluorobutanamido)ethyl)-1H-benzo[d]imidazol-2-yl)methyl)-1-fluorocyclopropane-1-carboxamide] | > 100 | > 100
4 | C[C@@H](NC(=O)CCC(F)(F)F)c1ccc2[nH]c([C@@H](NC(=O)C3(C(F)(F)F)CC3)C3CCC(F)(F)CC3)nc2c1 [Example 97, N—((S)-(4,4-Difluorocyclohexyl)(5-((R)-1-(4,4,4-trifluorobutanamido)ethyl)-1H-benzo[d]imidazol-2-yl)methyl)-1-(trifluoromethyl)cyclopropane-1-carboxamide] | > 100 | > 100
5 | C[C@@H](NC(=O)CCC(F)(F)F)c1ccc2[nH]c([C@@H](NC(=O)[C@H]3C[C@@H]3F)C3CCC(F)(F)CC3)nc2c1 [Example 98, (1R,2S)—N—((S)-(4,4-Difluorocyclohexyl)(5-((R)-1-(4,4,4-trifluorobutanamido)ethyl)-1H-benzo[d]imidazol-2-yl)methyl)-2-fluorocyclopropane-1-carboxamide] | > 100 | > 100
6 | C[C@@H](NC(=O)CCC(F)(F)F)c1ccc2[nH]c([C@@H](NC(=O)[C@H]3C[C@H]3F)C3CCC(F)(F)CC3)nc2c1 [Example 99, (1R,2R)—N—((S)-(4,4-Difluorocyclohexyl)(5-((R)-1-(4,4,4-trifluorobutanamido)ethyl)-1H-benzo[d]imidazol-2-yl)methyl)-2-fluorocyclopropane-1-carboxamide] | > 100 | > 100
7 | C[C@@H](NC(=O)CCC(F)(F)F)c1ccc2[nH]c([C@@H](NC(=O)[C@@H]3C[C@H]3F)C3CCC(F)(F)CC3)nc2c1 [Example 100, (1S,2R)—N—((S)-(4,4-Difluorocyclohexyl)(5-((R)-1-(4,4,4-trifluorobutanamido)ethyl)-1H-benzo[d]imidazol-2-yl)methyl)-2-fluorocyclopropane-1-carboxamide] | > 100 | > 100
8 | C[C@@H](NC(=O)CCC(F)(F)F)c1ccc2[nH]c([C@@H](NC(=O)[C@@H]3C[C@@H]3F)C3CCC(F)(F)CC3)nc2c1 [Example 101, (1S,2S)—N—((S)-(4,4-Difluorocyclohexyl)(5-((R)-1-(4,4,4-trifluorobutanamido)ethyl)-1H-benzo[d]imidazol-2-yl)methyl)-2-fluorocyclopropane-1-carboxamide] | > 100 | > 100
9 | C[C@@H](NC(=O)CCC(F)(F)F)c1ccc2[nH]c([C@@H](NC(=O)[C@@H]3C[C@@H]3C#N)C3CCC(F)(F)CC3)nc2c1 [Example 102, cis-(1,2)-2-Cyano-N—((S)-(4,4-difluorocyclohexyl)(5-((R)-1-(4,4,4-trifluorobutanamido)ethyl)-1H-benzo[d]imidazol-2-yl)methyl)cyclopropane-1-carboxamide] | > 100 | > 100
10 | C[C@@H](NC(=O)CCC(F)(F)F)c1ccc2[nH]c([C@@H](NC(=O)C3CC34CC4)C3CCC(F)(F)CC3)nc2c1 (stereo partly drawn) [Example 110, N—((S)-(4,4-Difluorocyclohexyl)(5-((R)-1-(4,4,4-trifluorobutanamido)ethyl)-1H-benzo[d]imidazol-2-yl)methyl)spiro[2.2]pentane-1-carboxamide] | > 100 | > 100
11 | C[C@@H](NC(=O)CCC(F)(F)F)c1ccc2[nH]c([C@@H](NC(=O)C3CC34CCC4)C3CCC(F)(F)CC3)nc2c1 (stereo partly drawn) [Example 111, N—((S)-(4,4-Difluorocyclohexyl)(5-((R)-1-(4,4,4-trifluorobutanamido)ethyl)-1H-benzo[d]imidazol-2-yl)methyl)spiro[2.3]hexane-1-carboxamide] | > 100 | > 100
12 | C[C@@H](NC(=O)CCC(F)(F)F)c1ccc2[nH]c([C@@H](NC(=O)C34CC(C3)C4)C3CCC(F)(F)CC3)nc2c1 [Example 112, N—((S)-(4,4-Difluorocyclohexyl)(5-((R)-1-(4,4,4-trifluorobutanamido)ethyl)-1H-benzo[d]imidazol-2-yl)methyl)bicyclo[1.1.1]pentane-1-carboxamide] | > 100 | > 100
13 | CC(C)C(=O)N[C@H](c1nc2cc([C@@H](C)NC(=O)CCC(F)(F)F)ccc2[nH]1)C1CCC(F)(F)CC1 [Example 115, N—((R)-1-(2-((S)-(4,4-Difluorocyclohexyl)(isobutyramido)methyl)-1H-benzo[d]imidazol-5-yl)ethyl)-4,4,4-trifluorobutanamide] | > 100 | > 100
14 | C[C@@H](NC(=O)CC(C(F)(F)F)C(F)(F)F)c1ccc2[nH]c([C@@H](NC(=O)c3ccnn3C)C3CCC(F)(F)CC3)nc2c1 [Example 116, N—((S)-(4,4-Difluorocyclohexyl)(5-((R)-1-(4,4,4-trifluoro-3-(trifluoromethyl)butanamido)ethyl)-1H-benzo[d]imidazol-2-yl)methyl)-1-methyl-1H-pyrazole-5-carboxamide] | 50 to 100 | < 50
15 | C[C@@H](NC(=O)CC(C)(C)C)c1ccc2[nH]c([C@@H](NC(=O)c3ccnn3C)C3CCC(F)(F)CC3)nc2c1 [Example 117, N—((S)-(4,4-Difluorocyclohexyl)(5-((R)-1-(3,3-dimethylbutanamido)ethyl)-1H-benzo[d]imidazol-2-yl)methyl)-1-methyl-1H-pyrazole-5-carboxamide] | > 100 | > 100
16 | C[C@@H](NC(=O)CCC(F)(F)F)c1ccc2[nH]c([C@@H](NC(=O)c3ccnn3C)C3CCC(F)(F)CC3)nc2c1 [Example 118, N—((S)-(4,4-Difluorocyclohexyl)(5-((R)-1-(4,4,4-trifluorobutanamido)ethyl)-1H-benzo[d]imidazol-2-yl)methyl)-1-methyl-1H-pyrazole-5-carboxamide] | > 100 | 50 to 100
17 | C[C@@H](NC(=O)CC1CC(F)(F)C1)c1ccc2[nH]c([C@@H](NC(=O)c3ccnn3C)C3CCC(F)(F)CC3)nc2c1 [Example 119, N—((S)-(5-((R)-1-(2-(3,3-Difluorocyclobutyl)acetamido)ethyl)-1H-benzo[d]imidazol-2-yl)(4,4-difluorocyclohexyl)methyl)-1-methyl-1H-pyrazole-5-carboxamide] | > 100 | < 50
18 | C[C@@H](NC(=O)CCC(F)(F)F)c1ccc2nc([C@@H](NC(=O)c3ccccc3)C3CCC(F)(F)CC3)[nH]c2c1 [Example 120, N—((S)-(4,4-Difluorocyclohexyl)(6-((R)-1-(4,4,4-trifluorobutanamido)ethyl)-1H-benzo[d]imidazol-2-yl)methyl)benzamide] | > 100 | 50 to 100
